These results are taken from ChEMBL document CHEMBL3507680, “University of Dundee, Gates Library screen for HepG2 cell viability”.

The data set is described as follows: Human HepG2 cell viability assay in 384 well format. The format is toxicity, cell-based. The arrangement: dose 125 nL, time 70.5 hour; concentration not given beside the values. To be noted: HepG2 cells, read-out: Inhibition.
Take `CC(C)c1csc(C2CCCN(C(=O)c3ccc(=O)n(C)c3)C2)n1` (centres undefined): the cytotoxicity at 70.5 h was -0.564%.
As to `Cc1ccc(S(=O)(=O)N2CCC3(CC(C(=O)NCC(C)C)=NO3)C2)cc1` (centres undefined), the cytotoxicity at 70.5 h was found to be 7.95%.
Turning to `CCCC(=O)N1CCCC(c2ccccn2)C1` (centres undefined), the cytotoxicity at 70.5 h is -1.3%.
The same measure for `CCC(C)(C)N(C)CCOc1cccc(S(C)(=O)=O)c1`: -3.09%; for `O=C1NC(c2ccccc2)=N[C@@]12CC[C@@H]1CN(Cc3ccco3)C[C@@H]12`: -5.19%; for `CC(C)(C)NCc1nn(Cc2ccccc2)nc1-c1ccccc1`: 5.21%.
For `O=C(CN1C(=O)CCC1=O)NCc1nn(C2CCCC2)c2c1CCCC2`, the cytotoxicity at 70.5 h is -2.19%.
Take `CN(Cc1ccccn1)C1CC2(CCN(Cc3cccnc3)CC2)C1`: the cytotoxicity at 70.5 h stood at 5.08%.
Turning to `COCCn1cnnc1C(C)NC(=O)c1[nH]c2c(C)cc(C)cc2c1C` (centres undefined), the cytotoxicity at 70.5 h turned out to be 14%.
On to `COc1ccc(C)cc1-n1cnnc1C1CCCN(C)C1` (centres undefined), for which the cytotoxicity at 70.5 h was determined as 9.2%.
As for `CCn1nccc1C(=O)N1CCCCC1CCc1ccc(O)cc1` (centres undefined), the cytotoxicity at 70.5 h worked out at 11%.
For `O=C(c1cc[nH]n1)N1CCCC1c1cnccn1` (centres undefined) the value was -10.5%.
In the case of `COc1ccccc1CC1CCCN(C(=O)c2nccnc2N)C1` (centres undefined), the cytotoxicity at 70.5 h is -6.5%.
With `CNC(=O)c1ccc(C2CN(C(=O)COC)CCO2)nc1` (centres undefined), the cytotoxicity at 70.5 h was -16.7%.
For `Cn1ccnc1C(=O)N[C@@H]1CN(Cc2ccoc2)[C@@H]2CCCO[C@@H]21`, the cytotoxicity at 70.5 h is -2.77%.
For `Oc1nc(N2CCOCC2)nc2c1CCN(Cc1ccccc1)CC2` the value was -1.05%; for `c1cnc(N2CCCC(c3cc4cccnc4[nH]3)C2)nc1` (centres undefined), -8.49%; for `CC(C)c1noc(CN2CCC(c3nc4cc(Cl)ccc4o3)CC2)n1`, -19.1%.
Take `COc1ccc(/C=C/CN2CCN(c3nccnc3C)CC2)cc1`: the cytotoxicity at 70.5 h was -5.85%.
As for `O=C(CC1COCCN1)N1CCC(N2CCc3ccccc3C2)CC1` (centres undefined), the cytotoxicity at 70.5 h came to 7.65%.
For the compound `O=C(NCCc1nc(-c2cccnc2)no1)c1ccc(C2CCCO2)s1` (centres undefined), the cytotoxicity at 70.5 h was 6.34%.
With `CCN(CC)C(=O)c1ccc(Cl)c(NC(=O)c2csnn2)c1`, the cytotoxicity at 70.5 h was -10.1%.
`Cc1nc2ccccc2nc1CN1CCCCC1Cn1cccn1` (centres undefined): the cytotoxicity at 70.5 h is -12.7%.
`Cc1c(C2SCC(=O)Nc3c2c(O)nn3C2CCCCC2)cnn1C` (centres undefined): the cytotoxicity at 70.5 h was -24.4%.
Regarding `O=C(CNC(=O)C1(c2ccc(F)cc2F)CCC1)Nc1cccnc1`, the cytotoxicity at 70.5 h came to 31.2%.
With `Cc1nn(C)c2c(=O)n(Cc3ccc(C#N)cc3)nnc12`, the cytotoxicity at 70.5 h is -10.1%.
`Cn1cccc1C(=O)NC(C)(C(N)=O)c1cccc(Cl)c1` (centres undefined): the cytotoxicity at 70.5 h was -98.6%.
On to `Cn1ccnc1CN1CCC(Cn2cc(-c3ccccc3)nn2)CC1`, for which the cytotoxicity at 70.5 h was determined as 3.07%.
On to `CC(C)(C)c1ncc2c(n1)CN(C(=O)c1ccc(C#N)nc1)C2`, for which the cytotoxicity at 70.5 h was found to be 11.4%.
On to `COC(=O)CCNC(=O)c1ccoc1CN1c2ccccc2CC1C` (centres undefined), for which the cytotoxicity at 70.5 h was -1.15%.
As to `Cc1ccc2c(c1)C(=O)NCC1(CCN(C(=O)c3cc(C)no3)CC1)O2`, the cytotoxicity at 70.5 h was -7.27%.
For the compound `Cc1ccc(N2CCCC3(CCCC(=O)N3)C2)nn1` (centres undefined), the cytotoxicity at 70.5 h was -5.66%.
`CC(C)(O)c1cn(C2CCN(c3ncccc3Cl)CC2)nn1`: the cytotoxicity at 70.5 h came out at 3.9%.
Take `COc1ccc(-c2nc(C#N)c(N(C)C)o2)cc1S(=O)(=O)N(C)C`: the cytotoxicity at 70.5 h is -11.8%.
For `Cc1ccc(C(=O)N2CCC3(CCC(=O)N(CCN(C)C)C3)CC2)nc1` the value was -3.11%.
As for `Cc1ccc(C(CNC(=O)c2cc(CC(C)C)nn2C)N(C)C)cc1` (centres undefined), the cytotoxicity at 70.5 h is -3.96%.
Turning to `OC1CCCN(Cc2c(-c3ccco3)[nH]c3ncccc23)C1` (centres undefined), the cytotoxicity at 70.5 h was -4.41%.
Take `CC(C)N1Cc2c(C(=O)N3CCN(C)CC3)nn(C)c2C1`: the cytotoxicity at 70.5 h was -0.433%.
Regarding `O=C1NCC2(CCCN(C(=O)Nc3ccc4scnc4c3)CC2)O1` (centres undefined), the cytotoxicity at 70.5 h is -16.7%.
On to `CC1(C(N)=O)CN(CC2CCC2)CCO1` (centres undefined), for which the cytotoxicity at 70.5 h is -2.2%.
For `Cn1ccnc1CN1CCC2(CC1)CN(c1ccccn1)CCO2`, the cytotoxicity at 70.5 h came to 8.31%.
On to `CCN(Cc1cccc2c1OCO2)C(=O)NC1CC1`, for which the cytotoxicity at 70.5 h stood at 8.97%.
Turning to `CCSc1cc(C(=O)NCC(C)(C)N(C)C)ccn1`, the cytotoxicity at 70.5 h was -90.6%.
The same measure for `CC(CO)(CO)NC(=O)C1CCC(=O)N(Cc2ccc(Cl)cc2)C1` (centres undefined): -2.86%; for `CCOCCCC(=O)NCc1ccc(N2CCCCC2)cc1`: -11.1%; for `CCOCCCNc1ncc(-c2cccc(F)c2)c(-c2nccn2C)n1`: -3.33%.
`CC(=O)N1CCC(c2c(CN(C)C)cnc3cc(C)nn23)CC1`: the cytotoxicity at 70.5 h is 15.7%.
As to `COC(=O)c1ccc(Cn2cccc(C(F)(F)F)c2=O)c(OC)c1`, the cytotoxicity at 70.5 h came out at 21.6%.
As to `CCC(O)CNC(=O)C1(N(C)Cc2ccccc2)Cc2ccccc2C1` (centres undefined), the cytotoxicity at 70.5 h was -3.52%.
Consider `CN(C(=O)NCc1nccn1CCc1ccccc1)C1CCC1`, for which the cytotoxicity at 70.5 h was 1.68%.
Consider `COc1cccc(OCC(=O)N(C)c2cccnc2N(C)C)c1`, for which the cytotoxicity at 70.5 h is -8.02%.
With `CC(NC(=O)CCOc1cccc(F)c1)c1nnc2n1CCC2` (centres undefined), the cytotoxicity at 70.5 h was -2.58%.
For `Cc1nccn1CC1CCN(C(=O)c2ccccc2)CC1` the value was -7.01%.
Consider `NCCCC(=O)NCC1(O)CCN(c2ccnc3cccnc23)C1` (centres undefined), for which the cytotoxicity at 70.5 h is -7.06%.
As to `Cn1cnnc1CN1CCC2(CCCN(C3CCCCC3)C2=O)C1` (centres undefined), the cytotoxicity at 70.5 h was -1.45%.
`Cc1ccccc1CCC(=O)N1CCCC(c2cc(C(N)=O)[nH]n2)C1` (centres undefined): the cytotoxicity at 70.5 h worked out at 6.15%.
Turning to `c1cc(CN2CCc3ncnc(C4CCOC4)c3CC2)ccn1` (centres undefined), the cytotoxicity at 70.5 h is -6.5%.
In the case of `COCCN1CCC2(COCc3cnc(N(C)C)nc32)C1` (centres undefined), the cytotoxicity at 70.5 h was -2.9%.
As for `Cc1cnc(CN2CCN(C(C)c3nc(C4CC4)no3)CC2)cn1` (centres undefined), the cytotoxicity at 70.5 h was -6.13%.
With `O=C(NC[C@H]1OC[C@@H]2CCN(c3ccccn3)C[C@@H]21)c1ccco1`, the cytotoxicity at 70.5 h is -1.04%.
Regarding `Cn1cc(CN2CCC(Cn3cc(-c4ccccc4)nn3)CC2)cn1`, the cytotoxicity at 70.5 h is -4.28%.
Turning to `CN1CCCC1c1cncc(C(=O)NCCN2CCCCC2)n1` (centres undefined), the cytotoxicity at 70.5 h is -8.33%.
With `CN(C)Cc1nc(C2(NC(=O)Nc3ccccc3)CCCC2)no1`, the cytotoxicity at 70.5 h is -12.8%.
With `CCSc1ccc(C(=O)N2CCCCC2C(=O)N2CCCC2)cn1` (centres undefined), the cytotoxicity at 70.5 h was -0.733%.
With `Cc1ccc(CC(=O)N2CCN(CC(O)C(C)(C)C)CC2)cn1` (centres undefined), the cytotoxicity at 70.5 h was determined as 0.113%.
On to `Cc1ncc(CO)c(CN2CCCC2c2nc3c(C)cccc3[nH]2)c1O` (centres undefined), for which the cytotoxicity at 70.5 h is -0.268%.
As for `O=C(c1cn(-c2ccccc2)nn1)N1CCOCC(O)C1` (centres undefined), the cytotoxicity at 70.5 h came out at 15.7%.
On to `Cn1nc(COCC2CC2)c2c1CCN(Cc1cccs1)C2`, for which the cytotoxicity at 70.5 h was -4.53%.
In the case of `Clc1cccnc1N1CCC(NCc2cccc3cn[nH]c23)C1` (centres undefined), the cytotoxicity at 70.5 h is -4.87%.
As to `CSCC(C)(O)CNC(=O)c1ccc(Br)cc1F` (centres undefined), the cytotoxicity at 70.5 h was -5.28%.
For `O=C1CCC(CCC(=O)N2CCCC2c2nccs2)=NN1` (centres undefined) the value was 8.6%.
Turning to `COc1ccc(OCCCNC(=O)NCc2csc(C)n2)cc1`, the cytotoxicity at 70.5 h was -7.03%.
On to `O=S(=O)(NC(CO)Cc1c[nH]c2ccccc12)c1cncc(F)c1` (centres undefined), for which the cytotoxicity at 70.5 h was -4.62%.
For `COC1CCN(C(=O)NCC(N)=O)CC(=O)N(C)c2ccccc21` (centres undefined) the value was -5.28%.
On to `Cc1csc(N2CCN(Cc3cnc4c(c3)c(C)nn4C)CC2)n1`, for which the cytotoxicity at 70.5 h was -24.9%.
`CCCN1CCCn2nc(CNC(=O)C3CCOC3)cc2C1` (centres undefined): the cytotoxicity at 70.5 h is -2.94%.
Take `CC(C)Oc1cc(N2CC[C@@H](N3CCOCC3)[C@H](O)C2)nc(N)n1`: the cytotoxicity at 70.5 h is -6.54%.
For `CN1CCN(C)C2(CCN(Cc3ccc(C4CCCO4)s3)CC2)C1` (centres undefined) the value was -3.28%.
Turning to `Cc1cc(NCCNc2cccnc2)nc(-c2ccccc2O)n1`, the cytotoxicity at 70.5 h stood at 3.73%.
As to `COCC(=O)N1CCC2(CC1)CC(N1CCN(C)CC1)CO2` (centres undefined), the cytotoxicity at 70.5 h is 14.5%.
For `CNC(=O)C1CCCCN1C(=O)c1n[nH]c(=O)c2ccccc12` (centres undefined), the cytotoxicity at 70.5 h was -6.33%.
For `c1ccc(-c2cc(CC3(NCc4ncc[nH]4)COC3)no2)cc1`, the cytotoxicity at 70.5 h was -4.27%.
The same measure for `CC[C@H](C)[C@H](N)C(=O)Nc1nc(-c2cnc(N(C)CCO)nc2)cs1`: -1.04%; for `Cn1cc(CN2CCC(c3cc(CCO)[nH]n3)C2)cn1` (centres undefined): -8.16%.
Turning to `COc1ccc(CN2CCCCC2Cn2nc(C)nc2C)cc1F` (centres undefined), the cytotoxicity at 70.5 h was -1.41%.
On to `CCn1cc(S(=O)(=O)N2CCN(C(=O)c3cc(Br)cs3)CC2)c(C)n1`, for which the cytotoxicity at 70.5 h came out at 21.7%.
On to `Cc1nsc(N2CCCN(c3ccc(C#N)cn3)CC2)n1`, for which the cytotoxicity at 70.5 h was -0.603%.
For the compound `CN(C)S(=O)(=O)N(C)C(c1cccnc1)c1ccc(F)c(F)c1` (centres undefined), the cytotoxicity at 70.5 h is 14.4%.
In the case of `Cc1cc(C[C@@H]2COC[C@H]2NCc2ccc(C)c(C)c2)on1`, the cytotoxicity at 70.5 h was -7.12%.
As to `CC(CC#N)N(C)Cc1ccc(F)cc1F` (centres undefined), the cytotoxicity at 70.5 h is -6.44%.
In the case of `CCN(C(=O)c1ccc2nncn2c1)C(C)Cc1ccc(OC)cc1` (centres undefined), the cytotoxicity at 70.5 h is -5.25%.
Take `CCc1ccsc1C(=O)NC(Cc1ccccc1)C(N)=O` (centres undefined): the cytotoxicity at 70.5 h was -6.72%.
The same measure for `FC(F)c1nnc2ccc(N3CCC4(CCOC4)C3)nn12` (centres undefined): 7.83%; for `Cc1[nH]ccc1C(=O)Nc1cccc(CN2CCC(O)CC2)c1`: 1.4%; for `CN(CC(=O)N1CCCCC1c1nc(C(C)(C)C)cs1)C1CC1` (centres undefined): 1.94%.
Consider `CC(C)(C(=O)NCCCC(N)=O)c1cccc(Br)c1`, for which the cytotoxicity at 70.5 h is -8.19%.
Turning to `Cc1nnc([C@@H]2C[C@H]3CN(C(=O)c4c(C)noc4C)C[C@H]3O2)[nH]1`, the cytotoxicity at 70.5 h was -11.6%.
Turning to `COc1ncccc1CNC(=O)Nc1ccc(N(C)C)nc1`, the cytotoxicity at 70.5 h was -12.5%.
Turning to `CC(c1cccnc1)N1CCN(CCc2ccccn2)CC1` (centres undefined), the cytotoxicity at 70.5 h was -0.575%.
